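Where inhibition never reached the appropriate level, the endpoint shown equals the highest concentration tested. Otherwise, values were interpolated linearly from a five-concentration, 48-hour dose response in 96-well plates. At the GI50, growth is halved.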 Calls of active or inactive are those of the source. Rule as the data show it: active = GI50 up to about 1.1 µM and inactive = higher.
What was measured:
Experiment in all cases: DTP human tumour cell line panel, 48 h
786-0 = test system: 786-0
A498 = test system: A498
A549 = test system: A549
CCRF-CEM = test system: CCRF-CEM
COLO 205 = test system: COLO 205
EKVX = test system: EKVX
HOP-62 = test system: HOP-62
IGROV-1 = test system: IGROV-1
MDA-MB-231 = test system: MDA-MB-231
MDA-N = test system: MDA-N
Malme-3M = test system: Malme-3M
NCI-H226 = test system: NCI-H226
OVCAR-3 = test system: OVCAR-3
RPMI-8226 = test system: RPMI-8226
RXF 393 = test system: RXF 393
SK-MEL-5 = test system: SK-MEL-5
SK-OV-3 = test system: SK-OV-3
SN12C = test system: SN12C
SW-620 = test system: SW-620
TK-10 = test system: TK-10

SMILES | GI50 (786-0) | GI50 (A498) | GI50 (A549) | GI50 (CCRF-CEM) | GI50 (COLO 205) | GI50 (EKVX) | GI50 (HOP-62) | GI50 (IGROV-1) | GI50 (MDA-MB-231) | GI50 (MDA-N) | GI50 (Malme-3M) | GI50 (NCI-H226) | GI50 (OVCAR-3) | GI50 (RPMI-8226) | GI50 (RXF 393) | GI50 (SK-MEL-5) | GI50 (SK-OV-3) | GI50 (SN12C) | GI50 (SW-620) | GI50 (TK-10)
CN(C)CCCN1c2ccccc2Sc2cnccc21 | 77.1 µM (inactive) | 31 µM (inactive) | > 100 µM (inactive) | 93.5 µM (inactive) | 47 µM (inactive) | > 100 µM (inactive) | 41.6 µM (inactive) | > 100 µM (inactive) | 42.1 µM (inactive) | 64.7 µM (inactive) | > 100 µM (inactive) | 83.2 µM (inactive) | 34 µM (inactive) | 79.1 µM (inactive) | 83 µM (inactive) | 79.8 µM (inactive) | > 100 µM (inactive) | 74.1 µM (inactive) | > 100 µM (inactive) | 42.4 µM (inactive)
COc1cc(O)c2c(=O)c3cccc(C)c3[nH]c2c1 | > 10 µM (inactive) | 9.33 µM (inactive) | > 10 µM (inactive) | 7.6 µM (inactive) | > 10 µM (inactive) | > 10 µM (inactive) | > 10 µM (inactive) | > 10 µM (inactive) | > 10 µM (inactive) | > 10 µM (inactive) | > 10 µM (inactive) | > 10 µM (inactive) | 9.31 µM (inactive) | > 10 µM (inactive) | > 10 µM (inactive) | > 10 µM (inactive) | > 10 µM (inactive) | > 10 µM (inactive) | > 10 µM (inactive) | > 10 µM (inactive)
CCN(C(=O)/C=C/c1ccco1)c1ccccc1 | > 100 µM (inactive) | > 100 µM (inactive) | > 100 µM (inactive) | > 100 µM (inactive) | > 100 µM (inactive) | > 100 µM (inactive) | > 100 µM (inactive) | > 100 µM (inactive) | > 100 µM (inactive) | > 100 µM (inactive) |  | > 100 µM (inactive) | > 100 µM (inactive) | 75.2 µM (inactive) | > 100 µM (inactive) | > 100 µM (inactive) | > 100 µM (inactive) | > 100 µM (inactive) | > 100 µM (inactive) | > 100 µM (inactive)
Nc1nnc2n1C(=O)C(C1(C3=Nc4nnc(N)n4C3=O)Cc3ccccc3C1=O)=N2 | > 100 µM (inactive) | 0.0205 µM (active) | 43.5 µM (inactive) | 48 µM (inactive) | > 100 µM (inactive) | > 100 µM (inactive) | > 100 µM (inactive) |  | 31.8 µM (inactive) | > 100 µM (inactive) | > 100 µM (inactive) | > 100 µM (inactive) | > 100 µM (inactive) | > 100 µM (inactive) | > 100 µM (inactive) | > 100 µM (inactive) | > 100 µM (inactive) | > 100 µM (inactive) | > 100 µM (inactive) | > 100 µM (inactive)
Cc1cn([C@H]2C[C@](C)(CO)N(C)O2)c(=O)[nH]c1=O | > 100 µM (inactive) | > 100 µM (inactive) | > 100 µM (inactive) |  | > 100 µM (inactive) | > 100 µM (inactive) | > 100 µM (inactive) | > 100 µM (inactive) | > 100 µM (inactive) | > 100 µM (inactive) | > 100 µM (inactive) | > 100 µM (inactive) |  | > 100 µM (inactive) | > 100 µM (inactive) | > 100 µM (inactive) | > 100 µM (inactive) | > 100 µM (inactive) | > 100 µM (inactive) | > 100 µM (inactive)
CN(C)c1ccc(/C=N/N=C2\C(=O)Nc3c(Cl)cc(Cl)cc32)cc1 | 45.9 µM (inactive) | 32.2 µM (inactive) | 41.9 µM (inactive) | 27.8 µM (inactive) | 52.6 µM (inactive) | 3.41 µM (inactive) | 39.7 µM (inactive) | 24.2 µM (inactive) | 32.5 µM (inactive) | 13.5 µM (inactive) | 25.2 µM (inactive) | > 100 µM (inactive) | 36.6 µM (inactive) |  | 59.3 µM (inactive) | 41.2 µM (inactive) | > 100 µM (inactive) | > 100 µM (inactive) | 35.6 µM (inactive) | 94.8 µM (inactive)
COc1ccc(Cn2nc(OCc3ccccn3)c3cc([N+](=O)[O-])ccc32)cc1 | > 100 µM (inactive) | > 100 µM (inactive) | > 100 µM (inactive) | > 100 µM (inactive) |  |  | 28.1 µM (inactive) | > 100 µM (inactive) | > 100 µM (inactive) | > 100 µM (inactive) | > 100 µM (inactive) | > 100 µM (inactive) | > 100 µM (inactive) | > 100 µM (inactive) | > 100 µM (inactive) | > 100 µM (inactive) | 63.7 µM (inactive) | > 100 µM (inactive) | > 100 µM (inactive) | > 100 µM (inactive)
O=[N+]([O-])c1cc2c([N+](=O)[O-])cccc2o1 | 2.17 µM (inactive) | 22.4 µM (inactive) | 30.1 µM (inactive) | 2.48 µM (inactive) | 4.57 µM (inactive) | 2.56 µM (inactive) | 18.5 µM (inactive) |  | 12.3 µM (inactive) | 7.93 µM (inactive) | 13.6 µM (inactive) | 12.6 µM (inactive) | 5.01 µM (inactive) | 2.85 µM (inactive) | 5.51 µM (inactive) | 16.7 µM (inactive) | 16.8 µM (inactive) | 12.1 µM (inactive) | 2.86 µM (inactive) | 9.25 µM (inactive)
CC(C)(C)OC(=O)NCC(=O)NC1CC=CCC1NC(=O)CNC(=O)OC(C)(C)C (centres undefined) | > 100 µM (inactive) | > 100 µM (inactive) | > 100 µM (inactive) | > 100 µM (inactive) | > 100 µM (inactive) |  | > 100 µM (inactive) | > 100 µM (inactive) | > 100 µM (inactive) | > 100 µM (inactive) | > 100 µM (inactive) | > 100 µM (inactive) | > 100 µM (inactive) | > 100 µM (inactive) | > 100 µM (inactive) | > 100 µM (inactive) | > 100 µM (inactive) | > 100 µM (inactive) | > 100 µM (inactive) | > 100 µM (inactive)
C[C@@H]1[C@H](O)CC2=C(CC[C@@H](O)C2(C)C)[C@@]1(CO)CCc1ccoc1 | > 50 µM (inactive) | > 50 µM (inactive) | > 50 µM (inactive) | 29.4 µM (inactive) | > 50 µM (inactive) | > 50 µM (inactive) | > 50 µM (inactive) | > 50 µM (inactive) | > 50 µM (inactive) | > 50 µM (inactive) | > 50 µM (inactive) | > 50 µM (inactive) | > 50 µM (inactive) |  | > 50 µM (inactive) | > 50 µM (inactive) | > 50 µM (inactive) | > 50 µM (inactive) | > 50 µM (inactive) | > 50 µM (inactive)
N#CC(c1ccccc1)(c1ccccc1)[C@@H](c1ccccc1)[C@H](Cc1ccccc1)NS(=O)(=O)c1ccccc1 | > 100 µM (inactive) | > 100 µM (inactive) | > 100 µM (inactive) | > 100 µM (inactive) | > 100 µM (inactive) | > 100 µM (inactive) | > 100 µM (inactive) | > 100 µM (inactive) | > 100 µM (inactive) | > 100 µM (inactive) | > 100 µM (inactive) |  | > 100 µM (inactive) | 10.3 µM (inactive) | 84.7 µM (inactive) | 96.2 µM (inactive) | > 100 µM (inactive) | > 100 µM (inactive) | > 100 µM (inactive) | > 100 µM (inactive)

Source: ChEMBL document CHEMBL1201862, “PubChem BioAssay data set” (2004)
